According to patent publication US20230212549A1, “COMPOUNDS COMPRISING A […] LIGAND AND USE THEREOF” (priority 2021, published 2023):
Numbered stars: 1 amine (or outer) side, 2 acyl side, 3 side chain; on linkers, the order of the positions; unused ones are H or OH. Bridge positions count the residues as written; N and C are the ends. Square brackets hold non-standard residues; d marks the D form. Peptide text beside a SMILES is read from it. * marks the point of attachment. X13 = O=C(O)CN1CCN(CC(=O)O)CCN(CC(=O)N2CCN(Cc3cc(C[*:1])cc(C[*:2])c3)CC2)CCN(CC(=O)O)CC1; DOTA = O=C(O)CN1CCN(CC(=O)O)CCN(CC(=O)*)CCN(CC(=O)O)CC1; 1Nal = N[C@@H](Cc1cccc2ccccc12)C(=O)O; mXylylene = c1cc(C[*:1])cc(C[*:2])c1; NMeF = CN[C@@H](Cc1ccccc1)C(=O)O; X29 = O=C(CN1CCN([*:1])CC1)[*:2]; Nle = CCCC[C@H](N)C(=O)O; Nphe = O=C(O)CNCc1ccccc1; Orn = NCCC[C@H](N)C(=O)O; X2 = NCCNCC(CNCCN)C(=O)*; Hexanoyl = CCCCCC(=O)*; Nleu = CC(C)CNCC(=O)O; βAla = NCCC(=O)O

Key:
[1] = target: T1, FAP-expressing human WI-38 fibroblasts (Homo sapiens, UniProt Q12884); assay: Competitive FACS binding assay
T1 construct: FAP-expressing human WI-38 fibroblasts (ECACC) were cultured in EMEM; host or cells: WI-38 human fibroblasts
T1 sequence (Q12884 whole entry): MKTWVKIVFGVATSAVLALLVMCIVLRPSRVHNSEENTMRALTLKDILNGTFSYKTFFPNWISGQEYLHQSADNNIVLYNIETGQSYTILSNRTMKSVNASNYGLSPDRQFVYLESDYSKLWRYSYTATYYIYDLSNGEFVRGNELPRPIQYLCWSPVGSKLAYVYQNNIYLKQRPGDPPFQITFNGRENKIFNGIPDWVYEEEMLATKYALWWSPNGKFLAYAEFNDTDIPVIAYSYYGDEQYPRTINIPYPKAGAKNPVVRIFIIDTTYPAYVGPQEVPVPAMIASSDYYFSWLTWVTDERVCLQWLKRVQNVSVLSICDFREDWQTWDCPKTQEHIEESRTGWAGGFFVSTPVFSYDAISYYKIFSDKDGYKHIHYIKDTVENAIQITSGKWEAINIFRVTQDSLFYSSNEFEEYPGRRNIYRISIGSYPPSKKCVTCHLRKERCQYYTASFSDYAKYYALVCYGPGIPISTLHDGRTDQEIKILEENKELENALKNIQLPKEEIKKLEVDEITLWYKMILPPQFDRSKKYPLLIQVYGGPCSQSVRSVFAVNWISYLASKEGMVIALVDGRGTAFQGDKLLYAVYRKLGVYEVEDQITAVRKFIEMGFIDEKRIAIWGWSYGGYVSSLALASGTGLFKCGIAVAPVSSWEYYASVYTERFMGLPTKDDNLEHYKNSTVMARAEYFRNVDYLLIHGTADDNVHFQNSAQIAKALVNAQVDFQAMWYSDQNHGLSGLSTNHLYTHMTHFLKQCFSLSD
Experimental: Cells were analyzed in an Attune NxT flow cytometer. […] […].
Cells were analyzed in an Attune NxT flow cytometer. […]

Human recombinant FAP = Human recombinant FAP (Homo sapiens, UniProt Q12884); assay: FRET-based FAP protease activity assay; type: biochemical; design: purchased R&D systems 3715-SE
Chain of Human recombinant FAP (Q12884 whole entry): as above

[2] = pIC50 Category (Activity), FRET-based FAP protease activity assay, recombinant human FAP, 37° C.
[3] = pIC50 Category (Activity), FRET-peptide substrate, 37° C.
[4] = pIC50 Category (activity), Recombinant human FAP

| SMILES | IC50 [1] | IC50 (Human recombinant FAP; [2]) | pIC50 Category (FACS) ([1]; FAP-expressing human WI-38 fibroblasts) | IC50 (Human recombinant FAP; [3]) | IC50 (Human recombinant FAP; [4]) |
| --- | --- | --- | --- | --- | --- |
| CCCCCC(=O)N[C@H]1CSCc2cccc(c2)CSC[C@@H](C(N)=O)NC(=O)[C@H](Cc2ccccc2)NC(=O)[C@H](CCC(N)=O)NC(=O)[C@H]([C@@H](C)O)NC(=O)[C@@H]2CCCN2C(=O)CN(CC(C)C)C1=O [3BP-3749, Hex-[Cys(3MeBn)-Nleu-Pro-Thr-Gln-Phe-Cys]-NH2] (Hexanoyl-C[Nleu]PTQFC-NH2; linker 1-7 via mXylylene) | > 1000 nM | > 1000 nM |  |  |  |
| CCCCCC(=O)N[C@H]1CSCc2cc(cc(CN3CCN(C(=O)CN4CCN(CC(=O)O)CCN(CC(=O)O)CCN(CC(=O)O)CC4)CC3)c2)CSC[C@@H](C(=O)N[C@@H](CC(=O)O)C(N)=O)NC(=O)[C@H](Cc2ccccc2)NC(=O)[C@H](CCC(N)=O)NC(=O)[C@H](C)NC(=O)[C@@H]2CCCN2C(=O)[C@@H]2CCCN2C1=O [3BP-3745, Hex-[Cys(tMeBn(DOTA-PP))-Pro-Pro-Ala-Gln-Phe-Cys]-Asp-NH2] (Hexanoyl-CPPAQFCD-NH2; linker 1-7 via X13) | 100 to 794 nM | 100 to 794 nM |  |  |  |
| CCCCCC(=O)N[C@H]1CSCc2cc(CSCCNC(=O)CCC(=O)NCCCOCCOCCOCCCNC(=O)CCCCC3(N(C)CC(=O)O)CN(CC(=O)O)CCN(CC(=O)O)C3)cc(c2)CSC[C@@H](C(=O)O)NC(=O)[C@H](Cc2ccccc2)NC(=O)[C@H](CCC(N)=O)NC(=O)[C@H]([C@@H](C)O)NC(=O)[C@@H]2CCCN2C(=O)[C@@H]2CCCN2C1=O [3BP-4384, Hex-[Cys(tMeBn(DATA-Ttds-AET))-Pro-Pro-Thr-Gln-Phe-Cys]-OH] | 10 to 79.4 nM |  | B (category B for pIC50 values between 7.1 and 8.0) | 10 to 79.4 nM | 10 to 79.4 nM |
| CCCCCC(=O)N[C@H]1CSCc2cc(CSCCNC(=O)CN3CCN(CC(=O)O)CCN(CC(N)=O)CCN(CC(=O)O)CC3)cc(c2)CSCC(C(=O)O)NC(=O)[C@H](Cc2ccccc2)NC(=O)[C@H](CCC(N)=O)NC(=O)[C@H]([C@@H](C)O)NC(=O)[C@@H]2CCCN2C(=O)[C@@H]2CCCN2C1=O (stereo partly drawn) [3BP-5288, Hex-[Cys(tMeBn(LSC-AET))-Pro-Pro-Thr-Gln-Phe-Cys]-OH] | < 10 nM |  |  |  | < 10 nM |
| CCCOCC(=O)N[C@H]1CSCc2cc(CSCCNC(=O)CN3CCN(CC(=O)O)CCN(CC(=O)O)CCN(CC(=O)O)CC3)cc(c2)CSC[C@@H](C(=O)O)NC(=O)[C@H](Cc2ccccc2)NC(=O)[C@H](CCC(N)=O)NC(=O)[C@H]([C@@H](C)O)NC(=O)[C@@H]2CCCN2C(=O)[C@@H]2CCCN2C1=O [3BP-3938, PrOAc-[Cys(tMeBn(DOTA-AET))-Pro-Pro-Thr-Gln-Phe-Cys]-OH] | < 10 nM |  |  | < 10 nM |  |
| CCCCCC(=O)N[C@H]1CSCc2cc(cc(CN3CCN(C(=O)CN4CCN(CC(=O)O)CCN(CC(=O)O)CCN(CC(=O)O)CC4)CC3)c2)CSC[C@@H](C(=O)N[C@@H](CC(=O)O)C(N)=O)NC(=O)[C@H](CCC(N)=O)NC(=O)[C@H](Cc2ccccc2)NC(=O)[C@@H]2CCCN2C(=O)[C@H]([C@@H](C)O)NC(=O)[C@@H]2CCCN2C1=O [3BP-3854, Hex-[Cys(tMeBn(DOTA-PP))-Pro-Thr-Pro-Phe-Gln-Cys]-Asp-NH2] (Hexanoyl-CPTPFQCD-NH2; linker 1-7 via X13) | > 1000 nM | > 1000 nM |  |  |  |
| CCCCCC(=O)N[C@H]1CSCc2cccc(c2)CSC[C@@H](C(N)=O)NC(=O)[C@H](Cc2cccc3ccccc23)NC(=O)[C@H](CCC(=O)O)NC(=O)[C@H]([C@@H](C)O)NC(=O)[C@@H]2CCCN2C(=O)[C@@H]2CCCN2C1=O [3BP-3361, Hex-[Cys(3MeBn)-Pro-Pro-Thr-Glu-1Ni-Cys]-NH2] (Hexanoyl-CPPTE[1Nal]C-NH2; linker 1-7 via mXylylene) | 10 to 79.4 nM | 10 to 79.4 nM |  |  |  |
| C[C@@H](O)[C@@H]1NC(=O)[C@@H]2CCCN2C(=O)[C@@H]2CCCN2C(=O)[C@@H](NC(=O)CCNC(=O)CN2CCN(CC(=O)O)CCN(CC(=O)O)CCN(CC(=O)O)CC2)CSCc2cccc(c2)CSC[C@@H](C(=O)N[C@@H](CC(=O)O)C(=O)N[C@@H](Cc2c[nH]cn2)C(=O)N(C)[C@@H](Cc2ccccc2)C(=O)N[C@@H](CCCNC(=N)N)C(=O)N[C@@H](CC(=O)O)C(N)=O)NC(=O)[C@H](Cc2ccccc2)NC(=O)[C@H](CCC(=O)O)NC1=O [3BP-3264, DOTA-Bal-[Cys(3MeBn)-Pro-Pro-Thr-Glu-Phe-Cys]-Asp-His-Nmf-Arg-Asp-NH2] ({DOTA-βAla}-CPPTEFCDH[NMeF]RD-NH2; linker 1-7 via mXylylene) | 10 to 79.4 nM | 10 to 79.4 nM |  |  |  |
| CCCCCC(=O)N[C@H]1CSCc2cccc(c2)CSC[C@@H](C(N)=O)NC(=O)[C@H](Cc2ccccc2)NC(=O)[C@H](CCC(N)=O)NC(=O)[C@H]([C@@H](C)O)NC(=O)[C@@H]2CCCN2C(=O)CN(Cc2ccccc2)C1=O [3BP-3748, Hex-[Cys(3MeBn)-Nphe-Pro-Thr-Gln-Phe-Cys]-NH2] (Hexanoyl-C[Nphe]PTQFC-NH2; linker 1-7 via mXylylene) | > 1000 nM | > 1000 nM |  |  |  |
| CCCCNC(=O)N[C@H]1CSCc2cc(CSCCNC(=O)CCC(C(=O)O)N3CCN(CC(=O)O)CCN(CC(=O)O)CC3)cc(c2)CSCC(C(=O)O)NC(=O)[C@H](Cc2ccccc2)NC(=O)[C@H](CCC(N)=O)NC(=O)[C@H]([C@@H](C)O)NC(=O)[C@@H]2CCCN2C(=O)[C@@H]2CCCN2C1=O (stereo partly drawn) [3BP-4723, nBu-CAyl-[Cys(tMeBn(NODAGA-AET))-Pro-Pro-Thr-Gln-Phe-Cys]-OH] | < 10 nM |  |  |  | < 10 nM |
| C=CCCOC(=O)N[C@H]1CSCc2cc(CSCCNC(=O)CN3CCN(CC(=O)O)CCN(CC(=O)O)CCN(CC(=O)O)CC3)cc(c2)CSC[C@@H](C(=O)O)NC(=O)[C@H](Cc2ccccc2)NC(=O)[C@H](CCC(N)=O)NC(=O)[C@H]([C@@H](C)O)NC(=O)[C@@H]2CCCN2C(=O)[C@@H]2CCCN2C1=O [3BP-3916, Bulloc-[Cys(tMeBn(DOTA-AET))-Pro-Pro-Thr-Gln-Phe-Cys]-OH] | < 10 nM |  |  | 10 to 79.4 nM |  |
| CCCC[C@H](NC(=O)CCNC(=O)CN1CCN(C(=O)C(CNCCN)CNCCN)CC1)C(=O)N[C@H]1CSCc2cccc(c2)CSC[C@@H](C(=O)O)NC(=O)[C@H](Cc2ccccc2)NC(=O)[C@H](CCC(=O)O)NC(=O)[C@H]([C@@H](C)O)NC(=O)[C@@H]2CCCN2C(=O)[C@@H]2CCCN2C1=O [3BP-4783, N4Ac-PPAc-Bal--Nle-[C(3MeBn)-PPTEFC]-OH] (X2-[X29][βAla][Nle]CPPTEFC-OH; linker 4-10 via mXylylene) | > 1000 nM |  |  |  | > 1000 nM |
| C[C@@H](O)[C@@H]1NC(=O)[C@@H]2CCCN2C(=O)[C@@H]2CCCN2C(=O)[C@@H](NC(=O)[C@@H]2CCCO2)CSCc2cc(CSCCNC(=O)CN3CCN(CC(=O)O)CCN(CC(=O)O)CCN(CC(=O)O)CC3)cc(c2)CSC[C@@H](C(=O)O)NC(=O)[C@H](Cc2ccccc2)NC(=O)[C@H](CCC(N)=O)NC1=O [3BP-3936, Sth-[Cys(tMeBn(DOTA-AET))-Pro-Pro-Thr-Gln-Phe-Cys]-OH] | 10 to 79.4 nM |  |  | 10 to 79.4 nM |  |
| COCCCC(=O)N[C@H]1CSCc2cc(CSCCNC(=O)CN3CCN(CC(=O)O)CCN(CC(=O)O)CCN(CC(=O)O)CC3)cc(c2)CSC[C@@H](C(=O)O)NC(=O)[C@H](Cc2ccccc2)NC(=O)[C@H](CCC(N)=O)NC(=O)[C@H]([C@@H](C)O)NC(=O)[C@@H]2CCCN2C(=O)[C@@H]2CCCN2C1=O [3BP-3937, MeOBut-[Cys(tMeBn(DOTA-AET))-Pro-Pro-Thr-Gln-Phe-Cys]-OH] | < 10 nM |  |  | 10 to 79.4 nM |  |
| C[C@@H](O)[C@@H]1NC(=O)[C@@H]2CCCN2C(=O)[C@@H]2CCCN2C(=O)[C@@H](NC(=O)C2CCOC2)CSCc2cc(CSCCNC(=O)CN3CCN(CC(=O)O)CCN(CC(=O)O)CCN(CC(=O)O)CC3)cc(c2)CSC[C@@H](C(=O)O)NC(=O)[C@H](Cc2ccccc2)NC(=O)[C@H](CCC(N)=O)NC1=O (stereo partly drawn) [3BP-3919, Fur-[Cys(tMeBn(DOTA-AET))-Pro-Pro-Thr-Gln-Phe-Cys]-OH] | 100 to 794 nM |  |  | 100 to 794 nM |  |
| CCCCCC(=O)N[C@H]1CSCc2cc(CSCCNC(=O)COCCOCCNC(=O)CCC(C(=O)O)N3CCN(CC(=O)O)CCN(CC(=O)O)CC3)cc(c2)CSCC(C(N)=O)NC(=O)[C@H](Cc2ccccc2)NC(=O)[C@H](CCC(N)=O)NC(=O)[C@H]([C@@H](C)O)NC(=O)[C@@H]2CCCN2C(=O)[C@@H]2CCCN2C1=O (stereo partly drawn) [3BP-4708, Hex-[Cys(tMeBn(NODAGA-O2Oc-AET))-Pro-Pro-Thr-Gln-Phe-Cys]-NH2] | < 10 nM |  |  |  | < 10 nM |
| CCCCCC(=O)N[C@H]1CSCc2cccc(c2)CSC[C@@H](C(=O)N[C@@H](CC(=O)O)C(=O)N[C@@H](CCCNC(=N)N)C(N)=O)NC(=O)[C@H](Cc2ccccc2)NC(=O)[C@H](CCC(=O)O)NC(=O)[C@H]([C@@H](C)O)NC(=O)[C@@H]2CCCN2C(=O)[C@@H]2CCCN2C1=O [3BP-3299, Hex-[Cys(3MeBn)-Pro-Pro-Thr-Glu-Phe-Cys]-Asp-Arg-NH2] (Hexanoyl-CPPTEFCDR-NH2; linker 1-7 via mXylylene) | < 10 nM | < 10 nM |  |  |  |
| CCCCCC(=O)N[C@H]1CSCc2cccc(c2)CSC[C@@H](C(N)=O)NC(=O)[C@H](Cc2ccccc2)NC(=O)[C@H](CCC(=O)O)NC(=O)[C@H](CCCNC(C)=O)NC(=O)[C@@H]2CCCN2C(=O)[C@@H]2CCCN2C1=O [3BP-3372, Hex-[Cys(3MeBn)-Pro-Pro-Orn(Ac)-Glu-Phe-Cys]-NH2] (Hexanoyl-CPP[Orn](Ac)EFC-NH2; linker 1-7 via mXylylene) | > 1000 nM | 100 to 794 nM |  |  |  |
